Results published in US6410249B1, “Odorant receptors” (priority 1999, dated 2002).
Where two headings read alike, the source gives them in different places.

Tests used:
receptor 5.24 [1] = target: T1, receptor 5.24 (Carassius auratus, UniProt Q9PW88); test: biochemical; type: binding
T1 construct: The receptor 5.24 full length cDNA detects 1-2 bands in genomic DNA blots; expressed in transfected cells; host or cells: HEK 293 cells expressing SV40 large T antigen (293-TSA)
T1 sequence (Q9PW88 25-877): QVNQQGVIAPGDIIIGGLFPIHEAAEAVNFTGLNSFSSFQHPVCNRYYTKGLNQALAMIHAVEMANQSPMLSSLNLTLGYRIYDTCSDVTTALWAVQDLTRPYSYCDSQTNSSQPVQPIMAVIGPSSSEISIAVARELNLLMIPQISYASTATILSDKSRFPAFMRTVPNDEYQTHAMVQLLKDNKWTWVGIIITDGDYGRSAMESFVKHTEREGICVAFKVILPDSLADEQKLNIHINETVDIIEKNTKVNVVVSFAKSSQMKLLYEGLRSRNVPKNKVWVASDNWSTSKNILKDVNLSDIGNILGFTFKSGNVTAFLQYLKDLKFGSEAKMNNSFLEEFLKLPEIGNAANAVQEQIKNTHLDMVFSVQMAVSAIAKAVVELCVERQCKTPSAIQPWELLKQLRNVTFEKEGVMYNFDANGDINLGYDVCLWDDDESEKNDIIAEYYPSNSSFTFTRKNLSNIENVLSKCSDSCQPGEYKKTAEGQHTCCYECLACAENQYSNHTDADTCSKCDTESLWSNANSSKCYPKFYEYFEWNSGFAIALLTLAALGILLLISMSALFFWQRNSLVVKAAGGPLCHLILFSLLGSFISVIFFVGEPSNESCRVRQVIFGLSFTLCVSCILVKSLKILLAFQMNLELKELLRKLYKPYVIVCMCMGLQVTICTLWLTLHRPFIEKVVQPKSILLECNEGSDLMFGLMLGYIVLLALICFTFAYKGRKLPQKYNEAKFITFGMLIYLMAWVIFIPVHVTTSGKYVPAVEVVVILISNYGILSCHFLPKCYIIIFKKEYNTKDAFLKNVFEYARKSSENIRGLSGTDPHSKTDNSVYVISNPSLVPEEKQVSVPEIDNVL
Protocol: Structure-Activity Properties of Compounds Interacting with the Cloned Goldfish Amino Acid Odorant Receptor. An understanding of how odorant receptors are used to encode olfactory information requires a characterization of the odorant specificities of individual receptor types. We therefore wished to determine the relative specificity of receptor 5.24 for structurally related ligands. […] Briefly, 3H-arginine binding to membranes from receptor 5.24-expressing HEK 293 cells was assayed in the absence or presence of varying concentrations of competitor ligands.
(§1) Mammalian Cell Culture and DNA Transfections. For cell transfections, the receptor 5.24 cDNA insert was subcloned into two expression vectors: CMVI, which utilizes a human cytomegalovirus (CMV) immediate early promoter-enhancer plus the CMV intron A sequence to drive expression, and 608RX-2.2L, which is similar to CMVI except the cDNA insert is followed by an internal ribosome entry site (IRES)—enhanced green fluorescent protein (EGFP) coding sequence; 608RX-2.2L also contains a puromycin resistance gene. For transient assays, HEK 293 cells expressing the SV40 large T antigen (293 TSA cells) were transfected with the CMVI-receptor 5.24 or CMVI control plasmid using lipofectamine (Life Technologies) and harvested at 48 hours for membrane preparations. For stable cell lines, 293-TSA cells were transfected with the 608RX-2.2L-receptor 5.24 plasmid or a control 608RX-2.2L plasmid and selected in puromycin. Colonies showing high levels of EGFP fluorescence (as judged by epifluorescence microscopy) were picked, expanded, and screened for 3H-L-arginine binding (see below).
(§2) Membrane Preparations and Ligand Binding Assays. Membranes for ligand binding assays were prepared by washing confluent cells three times with phosphate buffered saline (PBS), detaching cells with a PBS-based enzyme-free dissociation solution, and resuspending cells in ice-cold 5.0 mM Hepes, pH 7.4, 1.0 mM EDTA, 1.0 μg/ml leupeptin, 0.5 mM PMSF. All subsequent manipulations were performed on ice. After a 30 min incubation, the cell suspension was homogenized and centrifuged at 100,000×g for 30 min. Cell membrane pellets were washed twice by resuspension and centrifugation in binding buffer (20 mM Hepes, pH 7.4, 1.0 mM EDTA, 2.0 mM MgCl2, 1.0 μg/ml leupeptin, 0.5 mM PMSF), resuspended in binding buffer, and frozen at −80° C.
Saturation binding assays were performed using 20-25 μg of membrane protein in a final volume of 100 μl binding buffer and increasing concentrations of [2,3-3H] L-arginine (specific activity=40 Ci/mmol; Dupont NEN). Non-specific binding was measured in the presence of 500 μM unlabeled L-arginine. Competition assays were performed with 500 nM [2,3-3H] L-arginine and increasing concentrations of competitor ligands. All incubations were performed at 4° C. for 60 min and terminated by rapid filtration through Whatman GF/C filters pretreated with ice cold 0.1% polyethyleneimine. Filters were washed three times with 4.0 ml ice cold 20 mM Hepes, pH 7.4, and retained radioactivity was measured by scintillation counting.

receptor 5.24 [2] = target: T1, receptor 5.24; test: evoked currents in Xenopus oocytes expressing receptor 5.24 (two-electrode voltage clamp); type: cell-based, goldfish
Text: Identification by Expression Cloning of a cDNA Encoding a Goldfish Odorant Receptor. RNA was synthesized from pools of goldfish olfactory cDNA clones (900 individual clones per pool) and injected into Xenopus oocytes together with synthetic RNAs encoding GIRK and Gaolf. Oocytes were then screened for responses upon exposure to odorant cocktails containing amino acids, bile acids, or sex pheromones. […] The response to amino acids was biphasic, beginning with an oscillating inward current above the basal inward K+ current, followed by a decline in inward current to below the basal level. Such a biphasic effect is thought to be caused by Gaq-mediated activation of phospholipase C (responsible for the intial inward current via IP3) and protein kinase C (leading to suppression of the K+ current through phosphorylation of GIRK channel subunits) (Sharon et al., 1997).
Iterative subdivision of pool 19 by sib-selection allowed the isolation of a single clone encoding a receptor, designated receptor 5.24.
Oocytes were removed from anesthetized Xenopus laevis and treated with collagenase. Forty nanograms of cRNA from each cDNA library pool (˜40 pg cRNA/clone) was injected per oocyte, together with cRNAs encoding Gaolf and the GIRK subunits Kir 3.1 and Kir 3.4 (˜30 pg each). Approximately 30 pools were assayed before these primary screens were halted. Injected oocytes were incubated at 17° C. for over 80 hours prior to electrophysiological recordings. Recordings were performed by two-electrode voltage clamping using an Axoclamp-2A amplifier (Axon Instruments) or a Dagan CA-1 amplifier (Dagan Corp.). Data acquisition and analysis were performed using pCLAMP software (Axon Instruments). Membrane potential was held at −80 mV. For trials involving GIRK, oocytes were first perfused with Na-MBSH (88 mM NaCl, 1 mM KCl, 2.4 mM NaHCO3, 10 mM Hepes, pH 7.5, 0.82 mM MgSO4[7H2O], 0.33 mM Ca[NO3]2[4H2O], 0.41 mM CaCl2[2H2O]), and then switched into K-MBSH, which contains elevated K+ (88 mM KCl, 1 mM NaCl) until the basal current had stabilized (˜45 seconds) before challenging with agonist. Recordings on oocytes injected with receptor 5.24 in the absence of Gaolf and/or GIRK subunits were performed in Na-MBSH. Oocytes were exposed to solutions containing different agonists by switching bathing solutions with an 8 channel valve (Hamilton).

salmon olfactory neurons = details: 0.01-10 μM, isolated salmon olfactory neurons; cited from earlier work
[3] = system: goldfish olfactory neurons; test: multi-unit recordings from the goldfish olfactory epithelium; type: cell-based; details: 0.1 μM
receptor 5.24 [4] = target: T1, receptor 5.24; test: 3H-L-arginine saturation binding to membranes of receptor 5.24-expressing HEK 293 cells; parameters: species or system goldfish; details: summary statement; read-out: Kd (high affinity interaction)
Text: High-Affinity Binding of Radiolabeled L-Arginine to the Cloned Goldfish Odorant Receptor. To determine the affinity of the cloned goldfish amino acid receptor for basic amino acids, we characterized the ligand-receptor interaction by radiolabeled ligand binding to receptors expressed in mammalian cells. Human embryonic kidney (HEK) 293 cells were transfected with expression plasmids containing the receptor 5.24 cDNA insert. […] We next wished to determine what second messenger pathway receptor 5.24 couples to in HEK 293 cells. Control cells or cells expressing receptor 5.24 were exposed to varying concentrations of arginine and assayed for the accumulation of IP3 and cAMP.
as §1, with “below). In five independent receptor 5.24-transfected stable cell lines, receptor densities (Rt) varied between 0.5 and 6.0 pmol L-arginine binding sites/mg membrane protein. […] All competition binding assays and signal transduction studies were performed using the stable cell line 5.24-20 (Rt=2.0 pmol /mg) and a control cell line (2.2-9) stably transfected with vector alone (Rt=0.03 pmol/mg).” for “below).”
as §2
Saturation binding assays were performed using 20-25 μg of membrane protein in a final volume of 100 μl binding buffer and increasing concentrations of [2,3-3H] L-arginine (specific activity=40 Ci/mmol; Dupont NEN). Non-specific binding was measured in the presence of 500 μM unlabeled L-arginine. Competition assays were performed with 500 nM [2,3-3H] […] Filters were washed three times with 4.0 ml ice cold 20 mM Hepes, pH 7.4, and retained radioactivity was measured by scintillation counting. […] Data were analyzed by nonlinear curve fitting using Origin software (Microcal). […]

## N[C@@H](CO)C(=O)O [L-Serine]
Receptor 5.24 [1]; displacement of 3H-L-arginine from membranes of HEK 293 cells expressing receptor 5.24, read-out: Ki (binding affinity)
  Ki: 2800 nM
Receptor 5.24 [2]
  activation of receptor 5.24 (evoked currents), in words: smaller responses
Salmon olfactory neurons
  fraction of cells sensitive: ~60%

## CCCCCC(=O)/C=C/[C@@H]1[C@@H](C/C=C\CCCC(=O)O)[C@@H](O)C[C@H]1O [1 5-ketoprostaglandin F2a]
[3]
  locations that responded: 25 out of 65

## NCCCC[C@H](N)C(=O)O [L-Lysine]
Receptor 5.24 [4]
  Kd: ~100 nM
Receptor 5.24 [1]
  Ki: 90 nM
Receptor 5.24 [1]; comparative binding studies
  binding to receptor 5.24, in words: highest affinities
